Test results: PMC10558864 (Heliyon, 2023)
Where no end group is shown, it is not given here.

What was measured:
S. typhi^R [1] = format: cell-based, Salmonella typhi; settings: for MIC of antibiotic alone, S. typhi: resistant strain, MTT indicator; for MIC of antibiotic alone, S. typhi / FIC index of peptide in combination with Cefotaxime, S. typhi^R / FIC index of peptide in combination with Chloramphenicol, S. typhi^R / FIC index of peptide in combination with Erythromycin, S. typhi^R: 37 °C, 24 h; for FIC index of Cefotaxime in combination with the peptide, S. typhi^R / FIC index of Chloramphenicol in combination with the peptide, S. typhi^R / FIC index of Erythromycin in combination with the peptide, S. typhi^R: FIC(A) = MIC of antibiotic in the presence of peptide / MIC of antibiotic alone; for FIC index of peptide in combination with Cefotaxime, S. typhi^R / FIC index of peptide in combination with Chloramphenicol, S. typhi^R / FIC index of peptide in combination with Erythromycin, S. typhi^R: checkerboard, FIC(A)+FIC(P)
MRSA [2] = format: cell-based, methicillin-resistant Staphylococcus aureus; settings: for MIC of antibiotic alone, MRSA: MTT indicator; for FIC index of Cefotaxime in combination with the peptide, MRSA / FIC index of Chloramphenicol in combination with the peptide, MRSA / FIC index of Erythromycin in combination with the peptide, MRSA: FIC(A) = MIC of antibiotic in the presence of peptide / MIC of antibiotic alone
E. coli^R = format: cell-based, Escherichia coli; settings: for MIC of antibiotic alone, E. coli: resistant strain, MTT indicator; for MIC of antibiotic alone, E. coli / FIC index of peptide in combination with Cefotaxime, E. coli^R / FIC index of peptide in combination with Chloramphenicol, E. coli^R / FIC index of peptide in combination with Erythromycin, E. coli^R: 37 °C, 24 h; for FIC index of Chloramphenicol in combination with the peptide, E. coli^R / FIC index of Erythromycin in combination with the peptide, E. coli^R / FIC index of Cefotaxime in combination with the peptide, E. coli^R: FIC(A) = MIC of antibiotic in the presence of peptide / MIC of antibiotic alone; for FIC index of peptide in combination with Cefotaxime, E. coli^R / FIC index of peptide in combination with Chloramphenicol, E. coli^R / FIC index of peptide in combination with Erythromycin, E. coli^R: checkerboard, FIC(A)+FIC(P)
[3] = tested on: E. coli^N (standard strain); format: cell-based, Escherichia coli; settings: micro broth dilution, 37 °C, 24 h, MTT indicator, triplicates
S. pyogenes = format: cell-based, Streptococcus pyogenes; settings: micro broth dilution, 37 °C, 24 h, MTT indicator, triplicates
S. aureus = format: cell-based, Staphylococcus aureus; settings: micro broth dilution, 37 °C, 24 h, MTT indicator, triplicates
K. pneumoniae = format: cell-based, Klebsiella pneumoniae; settings: micro broth dilution, 37 °C, 24 h, MTT indicator, triplicates
S. typhi^N = format: cell-based, Salmonella typhi; settings: micro broth dilution, 37 °C, 24 h, MTT indicator, triplicates
MRSA [4] = format: cell-based, methicillin-resistant Staphylococcus aureus; settings: micro broth dilution, 37 °C, 24 h, MTT indicator, triplicates
S. typhi^R [5] = format: cell-based, Salmonella typhi; settings: micro broth dilution, 37 °C, 24 h, MTT indicator, triplicates
[6] = tested on: E. coli^R (resistant strain); format: cell-based, Escherichia coli; settings: micro broth dilution, 37 °C, 24 h, MTT indicator, triplicates
human erythrocytes = test: Hemolytic activity; format: cell-based; settings: 1% human erythrocytes in PBS pH 7.40, 37 °C, 1 h, absorbance 570 nm
[7] = tested on: microorganisms tested (standard and resistant bacterial strains); test: MIC range over the strains tested and therapeutic index; format: cell-based; settings: for MIC range: range over the strains tested, micro broth dilution
[8] = checkerboard, FIC(A)+FIC(P), 37 °C, 24 h

| Molecule | MIC of antibiotic alone, S. typhi (S. typhi^R [1]) [µM] | MIC of antibiotic alone, MRSA (MRSA [2]; 37 °C, 24 h) [µM] | Minimum inhibitory concentration; MIC, E. coli^N [3] [µM] | Minimum inhibitory concentration; MIC, S. pyogenes (S. pyogenes) [µM] | Minimum inhibitory concentration; MIC, S. aureus (S. aureus) [µM] | Minimum inhibitory concentration; MIC, K. pneumoniae (K. pneumoniae) [µM] | Minimum inhibitory concentration; MIC, S. typhi^N (S. typhi^N) [µM] | Minimum inhibitory concentration; MIC, MRSA (MRSA [4]) [µM] | Minimum inhibitory concentration; MIC, S. typhi^R (S. typhi^R [5]) [µM] | Minimum inhibitory concentration; MIC, E. coli^R [6] [µM] | FIC index of Cefotaxime in combination with the peptide, S. typhi^R (S. typhi^R [1]) | FIC index of Chloramphenicol in combination with the peptide, S. typhi^R (S. typhi^R [1]) | FIC index of Erythromycin in combination with the peptide, S. typhi^R (S. typhi^R [1]) | FIC index of Cefotaxime in combination with the peptide, MRSA (MRSA [2]) | FIC index of Chloramphenicol in combination with the peptide, MRSA (MRSA [2]) | FIC index of Erythromycin in combination with the peptide, MRSA (MRSA [2]) | FIC index of Chloramphenicol in combination with the peptide, E. coli^R (E. coli^R) | FIC index of Erythromycin in combination with the peptide, E. coli^R (E. coli^R) | MHC (minimum concentration of peptide that causes hemolysis) (human erythrocytes) [mM] | FIC index of Cefotaxime in combination with the peptide, E. coli^R (E. coli^R) | further results |
| --- | --- | --- | --- | --- | --- | --- | --- | --- | --- | --- | --- | --- | --- | --- | --- | --- | --- | --- | --- | --- | --- |
| CO/N=C(\C(=O)N[C@@H]1C(=O)N2C(C(=O)O)=C(COC(C)=O)CS[C@H]12)c1csc(N)n1 [Cefotaxime, reference compound] | 68.6 | 34.3 | – | – | – | – | – | – | – | – | – | – | – | – | – | – | – | – | – | – | – |
| O=C(N[C@H](CO)[C@H](O)c1ccc([N+](=O)[O-])cc1)C(Cl)Cl [Chloramphenicol, reference compound] | 6 | 193.4 | – | – | – | – | – | – | – | – | – | – | – | – | – | – | – | – | – | – | MIC of antibiotic alone, E. coli (E. coli^R): 386.8 µM |
| CC[C@H]1OC(=O)[C@H](C)[C@@H](O[C@H]2C[C@@](C)(OC)[C@@H](O)[C@H](C)O2)[C@H](C)[C@@H](O[C@@H]2O[C@H](C)C[C@H](N(C)C)[C@H]2O)[C@](C)(O)C[C@@H](C)C(=O)[C@H](C)[C@@H](O)[C@]1(C)O [Erythromycin, reference compound] | 21.3 | 1.3 | – | – | – | – | – | – | – | – | – | – | – | – | – | – | – | – | – | – | MIC of antibiotic alone, E. coli (E. coli^R): 85.2 µM |
| AILFLSLGAIKKG [BRGP-001] | – | – | >1879 | >1879 | 117 | 117 | >1879 | 15 | >1879 | >1879 | 0.50 | 0.50 | 0.50 | 0.50 | 0.063 | 0.54 | 0.25 | 0.12 | 1.127 | – | FIC index of peptide in combination with Chloramphenicol, MRSA (MRSA [2]; [8]): 2.063; FIC index of peptide in combination with Erythromycin, MRSA (MRSA [2]; [8]): 0.81; MIC range [7]: 15 to 117 µM |
| FALSILGALGIKK [BRGP-006] | – | – | 470 | 470 | 939 | 1879 | >1879 | 235 | 235 | 470 | 0.50 | 0.50 | 1.00 | 0.50 | 0.25 | 1.00 | 0.25 | 0.12 | 1.503 | 0.50 | FIC index of peptide in combination with Cefotaxime, S. typhi^R (S. typhi^R [1]): 1.00; FIC index of peptide in combination with Chloramphenicol, S. typhi^R (S. typhi^R [1]): 0.53; FIC index of peptide in combination with Erythromycin, S. typhi^R (S. typhi^R [1]): 1.50; FIC index of peptide in combination with Cefotaxime, MRSA (MRSA [2]; [8]): 0.75; FIC index of peptide in combination with Chloramphenicol, MRSA (MRSA [2]; [8]): 0.75; FIC index of peptide in combination with Erythromycin, MRSA (MRSA [2]; [8]): 1.030; FIC index of peptide in combination with Cefotaxime, E. coli^R (E. coli^R): 2.50; FIC index of peptide in combination with Chloramphenicol, E. coli^R (E. coli^R): 0.75; FIC index of peptide in combination with Erythromycin, E. coli^R (E. coli^R): 0.25; MIC range [7]: 235 to 1879 µM |
| FLIKSLAGAKGIL [BRGP-002] | – | – | >1879 | >1879 | >1879 | >1879 | >1879 | >1879 | >1879 | >1879 | 1.00 | 1.00 | – | 0.50 | 1.00 | 1.00 | 0.50 | – | 1.879 | – | – |
| GIKGALKSILFAL [BRGP-005] | – | – | 470 | 470 | >1879 | >1879 | >1879 | >1879 | 470 | 235 | 0.50 | 1.00 | 0.50 | 0.50 | 0.50 | 1.00 | 0.25 | 0.12 | 0.188 | 0.25 | FIC index of peptide in combination with Cefotaxime, S. typhi^R (S. typhi^R [1]): 0.75; FIC index of peptide in combination with Chloramphenicol, S. typhi^R (S. typhi^R [1]): 1.032; FIC index of peptide in combination with Erythromycin, S. typhi^R (S. typhi^R [1]): 0.63; FIC index of peptide in combination with Cefotaxime, E. coli^R (E. coli^R): 2.25; FIC index of peptide in combination with Chloramphenicol, E. coli^R (E. coli^R): 1.25; FIC index of peptide in combination with Erythromycin, E. coli^R (E. coli^R): 0.37; Therapeutic Indices (MHC/MIC) ([7]; range over the MIC range): 0.80 to 0.40; MIC range [7]: 235 to 470 µM |
| KGGAIKSLFLILA [BRGP-003] | – | – | >1879 | >1879 | >1879 | >1879 | >1879 | >1879 | >1879 | >1879 | 1.00 | 1.00 | – | 0.50 | 0.50 | 0.54 | 1.00 | 1.00 | 1.127 | 0.50 | – |
| KGIKGALSILFAL [BRGP-004] | – | – | >1879 | >1879 | >1879 | >1879 | >1879 | >1879 | >1879 | >1879 | 1.00 | 1.00 | 0.50 | 0.50 | 0.50 | 0.54 | 0.50 | 0.12 | 1.503 | 0.50 | – |
| PQQYPEMNTRRNW [BRGP-007] | – | – | >1454 | >1454 | >1454 | >1454 | >1454 | >1454 | >1454 | >1454 | – | – | – | – | – | – | – | – | 1.454 | – | – |
